Literature values, collected in patent publication US8791105B2, “Methods for alleviating chronic pain and improving performance of cattle undergoing dehorning or castration” (Kansas State University Research Foundation, priority 2010, dated 2014).

Key:
[1] = plasma; humans; cited from earlier work
[2] = in vivo; cited from earlier work

| Molecule | reported minimum effective concentration [1] [µg/mL] | plasma half-life previously reported [2] [min] |
| --- | --- | --- |
| 1-(aminomethyl) cyclohexane acetic acid [gabapentin] | 2 |  |
| O=C(O)c1ccccc1O [salicylate] |  | 30 |
